What follows are compounds tested against T1, TLR8 (Homo sapiens, UniProt Q9NR97) (assay: huPBMC TLR8 Antagonist IL-6 TR-FRET Assay). Conditions: human PBMCs stimulated with ssRNA40 1 μg/ml (DOTAP), 14-16 hrs; IL-6 TR-FRET read-out.
T1 sequence (Q9NR97 27-1041): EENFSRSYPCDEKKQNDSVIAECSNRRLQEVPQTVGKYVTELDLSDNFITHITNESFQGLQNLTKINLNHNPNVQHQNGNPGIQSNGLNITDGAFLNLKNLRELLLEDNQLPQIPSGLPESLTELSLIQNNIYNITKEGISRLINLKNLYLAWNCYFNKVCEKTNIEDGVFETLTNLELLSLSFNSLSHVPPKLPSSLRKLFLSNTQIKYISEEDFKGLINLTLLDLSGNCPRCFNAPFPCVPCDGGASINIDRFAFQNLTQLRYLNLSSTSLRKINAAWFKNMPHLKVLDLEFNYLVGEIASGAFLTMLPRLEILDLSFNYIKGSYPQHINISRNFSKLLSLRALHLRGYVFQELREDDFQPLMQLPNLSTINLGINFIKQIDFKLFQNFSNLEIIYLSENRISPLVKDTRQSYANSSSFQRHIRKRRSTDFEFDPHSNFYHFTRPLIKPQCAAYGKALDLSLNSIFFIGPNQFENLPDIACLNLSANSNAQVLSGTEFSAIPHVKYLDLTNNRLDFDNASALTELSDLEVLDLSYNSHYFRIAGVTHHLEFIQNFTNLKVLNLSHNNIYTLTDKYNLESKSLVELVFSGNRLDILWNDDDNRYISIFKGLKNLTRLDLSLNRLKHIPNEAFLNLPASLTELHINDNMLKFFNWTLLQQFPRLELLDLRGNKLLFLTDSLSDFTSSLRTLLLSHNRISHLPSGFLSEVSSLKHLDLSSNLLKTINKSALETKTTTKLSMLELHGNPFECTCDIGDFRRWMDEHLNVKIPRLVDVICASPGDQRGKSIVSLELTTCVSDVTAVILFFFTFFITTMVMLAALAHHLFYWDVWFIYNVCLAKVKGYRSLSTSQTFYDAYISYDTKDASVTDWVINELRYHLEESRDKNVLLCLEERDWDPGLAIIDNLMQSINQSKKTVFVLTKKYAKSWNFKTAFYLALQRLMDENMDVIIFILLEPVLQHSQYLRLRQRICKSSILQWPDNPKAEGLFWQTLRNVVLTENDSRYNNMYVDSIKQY
Assay type: cell-based
Parameters: Fresh blood was collected from normal human donors; endogenous in cells; host or cells: human PBMCs from fresh donor blood
Procedure: Compounds were generally serially diluted (1/3) in DMSO and plated on sterile 384 well tissue culture plates and stored until ready for use. Each ten-point dilution was typically plated in triplicate in parallel rows.
Fresh blood was collected from normal human donors underwritten informed consent in heparinized syringes on the morning of the assay. The blood was diluted in RPMI-1640 medium and the white blood cells were separated from red blood cells by centrifugation (800 g 15′ 0 acceleration, 0 brake) on a Ficoll cushion. Peripheral blood mononuclear cells (PBMCs) were separated from platelets by a series of low-speed centrifugations (1000RPM 10′) in PBS+5% HI—FBS and 1 mM EDTA. Purified PBMCs were re-suspended in assay medium (RPMI-1640 w Glutamax (Invitrogen) supplemented with 5% HI—FBS, 10 mM HEPES, 50 uM β-mercaptoethanol, and 100 mG/L penicillin/streptomycin cocktail). Viable PBMCs were counted on a hemacytometer and kept on ice until ready for plating.
A 4× concentration (4 ug/ml or 40 ug/ml for TLR8 or TLR7 assays, respectively) of the TLR7/8 agonist ssRNA40 (IDT) was complexed with 10% DOTAP (Roche) in assay medium for 30 min prior to addition to the PBMC suspension (5 million cells/ml). After addition, the final concentration of ssRNA40 in the TLR7/8 stimulated PBMC suspension was 1 μg/ml for TLR8 assay, and 10 μg/mL for the TLR7 assay. The final DOTAP concentration was 2.5%. Diluted PBMCs (5 million cells/ml) were treated with 4×TLR9 agonist ODN2216 (Invivogen). Final concentration of ODN2216 in TLR9 stimulated PBMC suspension was 0.3 μM.
Agonist stimulated PBMCs were plated on the compound treated 384 well plates at 150,000 cells/well. Un-stimulated PBMCs were plated as controls on each plate. Plating volume was 40 μL per well. DMSO concentration in each well was 0.25%.
A separate plate, without compounds, with titrations of ssRNA40 and ODN2216 was included in every assay to measure agonist response of each donor's PBMC prep. Assay plates were placed in a tissue culture incubator (37° C., 5% CO2) for 14-16 hrs. After this incubation, the plates were centrifuged and stored at −20° C. until they were assayed.
IL-6 TR-FRET Assay for TLR8 activity: • 1) Cisbio Human IL-6 kit, 20,000 tests (62TNFPEC), and GNF High-Base TC 384 well plates (cat #789163G) were used; • 2) the Anti-TIL-6 Cryptate conjugate and the Anti-IL-6 XL665 conjugate were diluted 1:20 in Reconstitution Buffer; • 3) a 1:1 mixture of 3 μl/well Anti-IL-6 Cryptate conjugate and 3 μl/well Anti-IL-6 XL665 conjugate was prepared; • 4) 6 μl/well HTRF dilution mastermix was added to 6 μl of transferred supernatant samples in proxiplates; • 5) The plates were incubated for 3 hrs at rt in the dark; and • 6) the levels of IL-6 production was measured using an Envision plate reader (665 nm (emmission)/590 nm (excitation)) with HTRF settings and ratiometric read-out: (XL665 emission/Eu Cryptate emission)×10,000. IFNα2b AlphaLISA Assay for TLR7 or TLR9 activity After thawing the assay plates, 6 μL of supernatant samples were transferred to a low-volume AlphaPlate 384SW (Perkin-Elmer). The concentration of IFNα in supernatants was measured using the IFNα2b AlphaLISA Assay (Perkin-Elmer: AL297F). 3 μL of IFNα acceptor beads/biotinylated antibody solution was added first, using laboratory automation. After an hour incubation, […] of streptavidin […] bead solution was added. The plates containing this mixture were incubated in the dark for an hour and read on an appropriate plate reader at reading parameters set by the manufacturer. (Envision, EnSpire: Perkin-Elmer).

IC50 [nM]	SMILES
2360	Cc1cc(N2Cc3cn(CC45CCC(N)(CC4)CC5)nc3C(C)(C)C2)c2cnn(C)c2n1 [compound 65, 4-((5-(1,6-dimethyl-1H-pyrazolo[3,4-b]pyridin-4-yl)-7,7-dimethyl-4,5,6,7-tetrahydro-2H-pyrazolo[4,3-c]pyridin-2-yl)methyl)bicyclo[2.2.2]octan-1-amine]
1130	Cc1cc(N2CCc3c(c(C)nn3CC34CCC(N5CCS(=O)(=O)CC5)(CC3)CC4)C2)c2cnn(C)c2n1 [compound 66, 4-(4-((5-(1,6-dimethyl-1H-pyrazolo[3,4-b]pyridin-4-yl)-3-methyl-4,5,6,7-tetrahydro-1H-pyrazolo[4,3-c]pyridin-1-yl)methyl)bicyclo[2.2.2]octan-1-yl)thiomorpholine 1,1-dioxide]
155	Cc1cc(N2CCc3c(c(C)nn3CC34CCC(N5CC(O)C5)(CC3)CC4)C2)c2cnn(C)c2n1 [compound 68, 1-(4-((5-(1,6-dimethyl-1H-pyrazolo[3,4-b]pyridin-4-yl)-3-methyl-4,5,6,7-tetrahydro-1H-pyrazolo[4,3-c]pyridin-1-yl)methyl)bicyclo[2.2.]octan-1-yl)azetidin-3-ol]
474	Cc1cc(N2CCc3c(c(C)nn3CC34CCC(N(C)C(C)C)(CC3)CC4)C2)c2cnn(C)c2n1 [compound 78, 4-((5-(1,6-dimethyl-1H-pyrazolo[3,4-b]pyridin-4-yl)-3-methyl-4,5,6,7-tetrahydro-1H-pyrazolo[4,3-c]pyridin-1-yl)methyl)-N-isopropyl-N-methylbicyclo[2.2.2]octan-1-amine]
395	Cc1cc(N2CCc3c(c(C)nn3CC34CCC(N)(CC3)CO4)C2)c2cnn(C)c2n1 [compound 81, 1-((5-(1,6-dimethyl-1H-pyrazolo[3,4-b]pyridin-4-yl)-3-methyl-4,5,6,7-tetrahydro-1H-pyrazolo[4,3-c]pyridin-1-yl)methyl)-2-oxabicyclo[2.2.2]octan-4-amine]
486	Cc1cc(N2CCc3c(c(C)nn3CC34CCC(N5CCCC5)(CC3)CO4)C2)c2cnn(C)c2n1 [compound 82, 5-(1,6-dimethyl-1H-pyrazolo[3,4-b]pyridin-4-yl)-3-methyl-1-((4-(pyrrolidin-1-yl)-2-oxabicyclo[2.2.2]octan-1-yl)methyl)-4,5,6,7-tetrahydro-1H-pyrazolo[4,3-c]pyridine]
1100	Cc1nn(CC23CCC(N)(CC2)CC3)c2c1CN(c1ccnc(-c3ccc(F)cc3)c1)CC2 [compound 87, 4-((5-(2-(4-fluorophenyl)pyridin-4-yl)-3-methyl-4,5,6,7-tetrahydro-1H-pyrazolo[4,3-c]pyridin-1-yl)methyl)bicyclo[2.2.2]octan-1-amine]
715	Cc1ccc(-c2cc(N3CCc4c(c(C)nn4CC45CCC(N)(CC4)CC5)C3)ccn2)c(F)c1 [compound 88, 4-((5-(2-(2-fluoro-4-methylphenyl)pyridin-4-yl)-3-methyl-4,5,6,7-tetrahydro-1H-pyrazolo[4,3-c]pyridin-1-yl)methyl)bicyclo[2.2.2]octan-1-amine]

More lines, now with the values behind:

SMILES	IC50 [nM]
Cc1nc(N2CCc3c(c(C)nn3CC34CCC(N)(CC3)CC4)C2)c2cc[nH]c2n1 [Compound No. 4, 4-((3-methyl-5-(2-methyl-7H-pyrrolo[2,3-d]pyrimidin-4-yl)-4,5,6,7-tetrahydro-1H-pyrazolo[4,3-c]pyridin-1-yl)methyl)bicyclo[2.2.2]octan-1-amine]	511
Cc1cc(N2CCc3c(c(C)nn3CC34CCC(NC(=O)CN(C)C)(CC3)CC4)C2)c2cnn(C)c2n1 [Compound No. 7, N-(4-((5-(1,6-dimethyl-1H-pyrazolo[3,4-b]pyridin-4-yl)-3-methyl-4,5,6,7-tetrahydro-1H-pyrazolo[4,3-c]pyridin-1-yl)methyl)bicyclo[2.2.2]octan-1-yl)-2-(dimethylamino)acetamide]	61
COCCN(CCOC)C12CCC(Cn3nc(C)c4c3CCN(c3cc(C)nc5c3cnn5C)C4)(CC1)CC2 [Compound No. 70, 4-((5-(1,6-dimethyl-1H-pyrazolo[3,4-b]pyridin-4-yl)-3-methyl-4,5,6,7-tetrahydro-1H-pyrazolo[4,3-c]pyridin-1-yl)methyl)-N,N-bis(2-methoxyethyl)bicyclo[2.2.2]octan-1-amine]	379
COCCN(C)C12CCC(Cn3nc(C)c4c3CCN(c3cc(C)nc5c3cnn5C)C4)(CC1)CC2 [Compound No. 73, 4-((5-(1,6-dimethyl-1H-pyrazolo[3,4-b]pyridin-4-yl)-3-methyl-4,5,6,7-tetrahydro-1H-pyrazolo[4,3-c]pyridin-1-yl)methyl)-N-(2-methoxyethyl)-N-methylbicyclo[2.2.2]octan-1-amine]	139
Cc1cc(N2CCc3c(c(C)nn3CC34CCC(NCC(=O)N(C)C)(CC3)CC4)C2)c2cnn(C)c2n1 [Compound No. 76, 2-((4-((5-(1,6-dimethyl-1H-pyrazolo[3,4-b]pyridin-4-yl)-3-methyl-4,5,6,7-tetrahydro-1H-pyrazolo[4,3-c]pyridin-1-yl)methyl)bicyclo[2.2.2]octan-1-yl)amino)-N,N-dimethylacetamide]	201
Cc1nn(CC23CCC(N)(CC2)CC3)c2c1CN(c1nc(-c3ccc(F)cc3)nc3c1cnn3C)CC2 [Compound No. 83, 4-((5-(6-(4-fluorophenyl)-1-methyl-1H-pyrazolo[3,4-d]pyrimidin-4-yl)-3-methyl-4,5,6,7-tetrahydro-1H-pyrazolo[4,3-c]pyridin-1-yl)methyl)bicyclo[2.2.2]octan-1-amine]	865
Cc1cc(N2CCc3c(c(C)nn3CC34CCC(N)(CC3)CC4)C2)c2ccccc2n1 [compound 62, -((3-methyl-5-(2-methylquinolin-4-yl)-4,5,6,7-tetrahydro-1H-pyrazolo[4,3-c]pyridin-1-yl)methyl)bicyclo[2.2.2]octan-1-amine]	699

From US20240376099A1, “COMPOUNDS AND COMPOSITIONS AS INHIBITORS OF ENDOSOMAL TOLL-LIKE RECEPTORS” (Novartis AG, priority 2016, published 2024)
